Assays:
P. gingivalis [1] = assay: Bacterial growth, optical density at 600 nm; format: cell-based, Porphyromonas gingivalis
Experimental: Bacterial strain and growth condition. P. gingivalis 33277 was cultured in tryptic soy broth supplemented with yeast extract (1 mg/ml), hemin (5 μg/ml) and menadione (1 μg/ml) and incubated at 37° C. in anaerobic chamber (85% N2, 10% H2, 5% CO2). S. gordonii DL1 was cultured in brain-heart infusion broth media containing 0.5% yeast extract and incubated at anaerobically at 37° C.
Bacterial growth. […] P. gingivalis and S. gordonii growth was determined by measuring optical density at 600 nm.

[2] = test system: AraC transcription factor mRNA; format: cell-based, Porphyromonas gingivalis
[3] = test system: arginine-specific (Rgp) gingipain; assay: Gingipain proteolytic activity (N-benzoyl-L-arginine-pNA); format: cell-based, Porphyromonas gingivalis; conditions: GELNs and GELN lipids 2×10^8 and 4×10^8 particles/ml vs PBS control; PA(34:2), aly-miR159a vs control
Experimental: Gingipain proteolytic activity. The proteolytic activity of arginine-specific (Rgp) and lysine specific (Kgp) gingipain was measured. P. gingivalis was cultured to mid-log phase and treated with and without GELNs (2.0-4.0×10^8 particles/ml) for 6 hour. The bacterial cells were collected by centrifugation at 5000 g for 10 minutes, washed, and lysed with BUGBUSTER® brand lysis reagent (Millipore Sigma, Burlington, MA, USA). The chromogenic p-nitroanilide substrates N-benzoyl-L-arginine-pNA or toluenesulfonyl-glycyl-prolyl-L-lysine-pNA (Sigma) were used to measure RgpA/B and Kgp respectively. Bacterial cell lysates (50 μl) were pre-incubated with assay buffer containing 200 mM Tris-HCl, 5 mM CaCl2/150 mM NaCl and supplemented with 10 mM cysteine in 96-well plate, incubated at 37° C. for 10 minutes, and 0.5 mM of specific substrate was added to each well. The rate of substrate hydrolysis and accumulation of p-nitroanillide was monitored spectrophotometrically at 405 nm. The enzyme activity was calculated and given as mOD/min/μl.

[4] = test system: HBP35 synthetic peptide (functional domain of hemin binding protein 35); assay: SPR: HBP35 synthetic peptide as analyte over immobilized liposomes; set-up: species or system Porphyromonas gingivalis; conditions: liposomes immobilized on LIP-1 sensor; non-specific peptide as negative control
Experimental: Liposome preparation. Total lipids from ginger exosome-like nanoparticles (GELNs) were extracted with chloroform:methanol (2:1, v/v). Thin layer chromatography (TLC) was performed with standard PA(34:2). The corresponding PA band was excised from the TLC plate and remaining bands were pool together. GELNs total lipids, PA depleted lipids and PA(34:2) were completely dried under stream of nitrogen gas. The lipid film was suspended in HEPES-buffered saline (HBS) running buffer (20 mM HEPES, 150 mM NaCl, pH 7.4) and gently vortexed and sonicated for 10 minutes until clear solution was formed. The liposome suspension was extruded through a poly carbonated membrane filter syringe with pore size of 100 nm. […] Total lipids were determined by measuring total phosphate levels.
Surface Plasmon Resonance (SPR). […] The sensograms were analyzed using TRACEDRAWER™ brand kinetic Analysis software.
Whether the HBP35 synthetic peptide directly bound to PA (34:2) and/or PA (34:1) of GELNs lipids was also tested. […] The lipid-protein interactions were determined by SPR sensograms. Fluorescent confocal micrographs of P. gingivalis labelled with PKH67 (green fluorescence) and GELNs and LipidG liposomes were labelled with PKH26 (red fluorescence). […] Particles and liposomes taken up by P. gingivalis were also quantified by flow cytometry. […]

hemagglutinin (HA) mRNA = format: cell-based, Porphyromonas gingivalis
[5] = test system: P. gingivalis total cell lysates; assay: SPR: P. gingivalis total cell lysates run over immobilized liposomes; format: binding, Porphyromonas gingivalis; conditions: LIP-1 sensor, total cell lysates as analyte
Experimental: Liposome preparation. Total lipids from ginger exosome-like nanoparticles (GELNs) were extracted with chloroform:methanol (2:1, v/v). Thin layer chromatography (TLC) was performed with standard PA(34:2). The corresponding PA band was excised from the TLC plate and remaining bands were pool together. GELNs total lipids, PA depleted lipids and PA(34:2) were completely dried under stream of nitrogen gas. The lipid film was suspended in HEPES-buffered saline (HBS) running buffer (20 mM HEPES, 150 mM NaCl, pH 7.4) and gently vortexed and sonicated for 10 minutes until clear solution was formed. The liposome suspension was extruded through a poly carbonated membrane filter syringe with pore size of 100 nm. The size of liposome was confirmed by NanoSight NS300 (Malvern Panalytical Inc, MA, USA). Total lipids were determined by measuring total phosphate levels.
Surface Plasmon Resonance (SPR). SPR experiments were conducted on an OPENSPR™ (Nicoya, Lifesciences, ON, CA). All experiments were carried on LIP-1 sensor (Nicoya, Lifesciences). Tests were run at flow rate of 20 μl/minute using HBS running buffer (20 mM HEPES, 150 mM NaCl, pH 7.4). First, LIP-1 sensor chip was cleaned with Octyl 0-D-glucopyranoside (40 mM) and CHAPS (20 mM). […] The sensograms were analyzed using TRACEDRAWER™ brand kinetic Analysis software. […]

[6] = test system: outer membrane protein (OMP) mRNA; format: cell-based, Porphyromonas gingivalis
[7] = test system: T9SS family members porK, porL, porM, porN, porP, porQ, porT, porV, porW, porX, porY, and sov; assay: qPCR of T9SS family member expression; format: cell-based, Porphyromonas gingivalis; conditions: GELNs 4.0×10^8 particles/ml, lipids from 4.0×10^8 particles, 5 μg PA (34:2) 6 hours; miRNAs 24 hours vs scrambled
Experimental: (§1) RNA isolation and quantitative real time PCR (qRT-PCR). Total RNA was isolated from P. gingivalis and TIGK cells using TRIZOL™ brand reagent according to the manufacturer's protocol (Invitrogen). RNA (1 μg) was converted into cDNA with ISCRIPT™ brand cDNA synthesis kit (Bio-Rad, Hercules, California, United States of America). qRT-PCR was performed for quantification of gene expression, cDNA samples were amplified with SSOFAST™ EVAGREEN® Supermix brand qRT-PCR cocktail in CFX96 Real-time PCR system (Bio-Rad). The mRNA expression was quantified by ΔΔCt method using 16S rRNA expression as an internal control for bacterial gene expression.
To further determine the molecular mechanisms underlying GELN-mediated inhibition of P. gingivalis gliding motility, the roles of GELNs, GELNs lipids, and GELN-derived miRNAs in modulating the expression of genes related to T9SS were determined. P. gingivalis was treated with GELNs (4.0×10^8 particles/ml) and GELNs lipids derived from 4.0×10^8 particles and 5 μg of PA (34:2) for 6 hours, and miRNAs aly-miR159a, gma-miR166u, and gma-miR166p were transduced into P. gingivalis by incubation for 24 hours. […] Further, it was determined that aly-miR159a-3p has potential binding sites in the T9SS C-terminal target domain containing protein PGN_0152; see FIG. 8H).

[8] = test system: P. gingivalis invasion into TIGK cells; assay: P. gingivalis invasion, antibiotic protection assay (CFU); format: cell-based, Porphyromonas gingivalis; human TIGK cells; conditions: GELNs total lipids or PA (34:2) vs DMSO control; miRNA-transduced bacteria
fimbrillin (fimA) = assay: fimA expression (real-time PCR, western blot); format: cell-based, Porphyromonas gingivalis; conditions: GELNs, total lipids or PA (34:2) 6 hours vs DMSO
Experimental: as §1

[9] = test system: P. gingivalis attachment to TIGK cells; assay: Attachment of P. gingivalis to epithelial cells (ELISA, confocal microscopy); format: cell-based, Porphyromonas gingivalis; human TIGK cells; conditions: GELNs vs PBS; total lipids (from 4.0×10^8 particles), 50 nM PA (34:2) vs DMSO; miRNAs vs scrambled control
Experimental: Culture of TIGK cells. Human telomerase immortalized keratinocytes (TIGKs) derived from gingival epithelium were obtained from Dr. Lamont Laboratory and maintained at 37° C. and 5% CO2 in DERMALIFE®-K brand serum free culture medium (Lifeline Cell Technology, Carlsbad, California, United States of America).
Attachment to epithelial cells. The amount of P. gingivalis attachment to the surface of gingival epithelial cells were determined. Briefly, telomerase immortalized gingival keratinocytes (TIGKs), derived from primary gingival epithelial cell lines, were cultured in 96-well plates for 24 hours. Then, the cells were fixed with 5% buffered formalin for 1 hour, and washed with PBS. […] Cells were washed with PBS to remove non-adherent bacteria. Then, wells were incubated with P. gingivalis whole-cell antibodies (1:10,000) at 37° C. for 1 hour, then washed with PBS. Binding was detected with a secondary horse radish peroxidase (HRP)-anti-rabbit antibody (1:5,000) and 3,3′,5,5′-tetramethylbenzidine substrate (Sigma), and recorded at 450 nm.
Then, the TIGK cells were fixed with 5% buffered formalin for 10 minutes. P. gingivalis cells were stained with an antibody raised against P. gingivalis (1:1000 dilution) incubated for 3 hour at room temperature. After extensive washing with PBS, cells were incubated with ALEXAFLUOR® 568-conjugated IgG (1:5000 dilution) for 1 hour at room temperature. […]

[10] = biological target: T1, lysine specific (Kgp) gingipain (Porphyromonas gingivalis, UniProt B2RLK2); format: cell-based; conditions: GELNs and GELN lipids 2×10^8 and 4×10^8 particles/ml vs PBS control; PA(34:2), aly-miR159a vs control
T1 construct: endogenous in cells; host or cells: Porphyromonas gingivalis, BugBuster lysate of treated bacteria

[11] = test system: rod shape determining protein (RodA) mRNA; format: cell-based, Porphyromonas gingivalis
P. gingivalis [12] = assay: Gliding motility in U shaped glass tube with 0.2% agar; format: cell-based, Porphyromonas gingivalis; conditions: GELNs 4.0×10^8 particles/ml, PA (34:2) 5 μg/ml vs PBS; miRNAs vs scrambled miRNA; 48 hours
Experimental: Gliding motility. Gliding motility of P. gingivalis was measured. P. gingivalis was reacted with GELNs (4×10^8 particles/ml) or total lipids extracted from GELNs or miRNAs such as aly-miR-159a-3p, gma-miR166u, and gma-miR166p. A sterile “U” shaped glass tube containing 0.2% agar as suspension medium was produced. P. gingivalis (100 μl) was inoculated one edge of the tube and incubated at anaerobic chamber for 48 hours, the location of bacteria was visualized by cloudiness, and distance movement of P. gingivalis was calculated.
Transferring gingipain from intracellular locations to the cell surface is a critical step in the pathogenesis of P. gingivalis. Gingipains are synthesized with an N-terminal signal peptide targeting them to the Sec translocon where they are exported through the outer-membranes via a novel secretion system referred to as type IX Secretion System (T9SS). T9SS plays a critical role in bacterial gliding motility that could contribute to P. gingivalis pathogenesis. Therefore, it was determined whether GELNs, GELN-derived miRNAs, and/or GELN lipids could play a role in inhibition of gliding motility of P. gingivalis. P. gingivalis were pretreated with GELNs (4.0×10^8 particles/ml) or PA (34:2; 5 μg/ml) or transduced with GELN-derived aly-miR159a, gma-miR166u, or gma-miR166p. […]

Compound	blocking of GELN lipid-mediated inhibition of P. gingivalis growth (P. gingivalis [1]; GELN total lipids (4.0 and 6.0×10^8 particles) pre-incubated with peptide)	blocking of PA-mediated inhibition of P. gingivalis growth (P. gingivalis [1]; PA (34:2) pre-incubated with peptide)	AraC mRNA expression [2]	arginine-specific (Rgp) gingipain activity [3]	direct interaction with HBP35 synthetic peptide (SPR sensogram peaks) [4]	hemagglutinin (HA) mRNA expression (hemagglutinin (HA) mRNA)	interaction of P. gingivalis proteins with immobilized nanoparticles (SPR sensograms) [5]	outer membrane protein (OMP) mRNA expression [6]	T9SS family members whose expression was significantly inhibited [7]	P. gingivalis invasion into TIGK cells [8]	fimA expression (mRNA and protein levels) (fimbrillin (fimA))	surface attachment of P. gingivalis to TIGK cells (ELISA) [9]	lysine-specific (Kgp) gingipain activity [10]	RodA mRNA expression [11]	gliding motility of P. gingivalis (P. gingivalis [12])	concentration at which P. gingivalis growth was inhibited (P. gingivalis [1]; 0-50 μg/ml tested, 24 hours, very low concentration compared to other lipid compounds)
WPRVGQLFIALDQTLGIPGFPTFSVCRME [HBP35 synthetic peptide]	significantly blocked	significantly blocked														
CCCCC/C=C\C/C=C\CCCCCCCC(=O)O[C@H](COC(=O)CCCCCCCCCCCCCCC)COP(=O)(O)O [PA (34:2), 1-palmitoyl-2-linoleoyl-sn-glycero-3-phosphate]			inhibited	contributed to inhibit	directly interacted	not significant	able to interact	inhibited	9/12	significant decrease	significantly decreased	significantly inhibited surface attachment	contributed to inhibit	inhibited	significantly inhibited the motility	5 µg/mL

Source: patent US12616663B2, “Plant-derived exosome-like nanoparticles inhibit bacterial pathogenicity” (priority 2019, dated 2026)
